Patent publication US8906953B2, “Pyrrolidine substitute flavones for the treatment of inflammatory disorders” (Piramal Enterprises Limited, priority 2010, dated 2014)

Tests used:
[1] = tested on: IL-6; experiment: LPS-induced IL-6 release from hPBMCs (ELISA); format: cell-based; settings: Homo sapiens
Experimental: Cytokine production by lipopolysaccharides (LPS) in hPBMCs (human peripheral blood mononuclear cells) was measured as in reference, Physiol. Res. 2003, 52, 593-598, the disclosure of which is incorporated by reference for the teaching of the assay. Blood was collected from healthy donors into Potassium EDTA vacutainer tubes (BID vacutainer). The PBMC were isolated using gradient centrifugation in Histopaque-1077 solution (Sigma). Isolated PBMC were suspended in RPMI 1640 (Rosewell Park Memorial Institute) culture medium (Sigma-Aldrich Fine Chemicals, USA) containing 10% fetal bovine serum (FBS) (JRH, USA), 100 U/mL penicillin (Sigma Chemical Co. St Louis, Mo., USA) and 100 μg/mL streptomycin (Sigma Chemical Co. St Louis, Mo.). The cell concentration was adjusted to 1×10^6 cells/mL. The viability as determined by trypan blue dye exclusion was uniform Ly≧98%. The cell suspension (100 μL) was added to the wells of a 96-well culture plate. Following cell plating, 79 μL of the culture medium and 1 μL of various concentrations of test compounds (compounds of formula 1) (final concentration 0.001, 0.003, 0.005, 0.01, 0.025, 0.03, 0.05, 0.1, 0.25, 0.3 and 1 μM) dissolved in DMSO (dimethyl sulfoxide, Sigma, Mo., USA) were added to the cells. The final concentration of DMSO was adjusted to 0.5%. The vehicle (0.5% DMSO) was used as control. […]

[2] = tested on: ICAM-1; experiment: TNF-α induced cell surface expression of ICAM-1 on HUVECs; format: cell-based; settings: Homo sapiens, HUVEC; TNF-α (1 ng/mL) stimulated HUVECs, 4 hours, n=2
Experimental: The assay was designed as in reference, Transplantation, 1997, 63(5), 759-764, the disclosure of which is incorporated herein by reference for the teaching of the assay.
Human umbilical vein endothelial cells (HUVECs) were obtained from Cascade Biologics (Oregon-USA). Cells were cultured in M-200 medium (Cascade Biologics) supplemented with low serum growth supplements (LSGS) (Cascade Biologics), penicillin-G (100 U/mL), streptomycin (100 μg/mL) and amphotericin B (50 ng/mL) (GIBCO). […] After TNF-α stimulation (1 ng/mL) (R&D Systems (Minneapolis, Minn.)) for 4 hours at 37° C. in an atmosphere of 5% CO2, supernatants were harvested and assayed for the expression of ICAM-1 (intercellular cell adhesion molecules), whereas the expressions of VCAM-1 (vascular cell adhesion molecules) and E-selectin were evaluated after 6 hours of stimulation. […] To quantitatively measure the amount of cell surface expressions of ICAM-1, VCAM-1 and E-selectin, ELISA assay was performed using anti-ICAM-1 (clone BBIG-I1), anti-VCAM-1 (clone BBIG-V1), anti-E-selectin (clone BBIG-E4) antibodies, isotype control mouse IgG1 (clone 11711.11) and the secondary antibody (anti-mouse IgG-HRP antibody) which were procured from R&D Systems (Minneapolis, Minn., USA). […]

[3] = tested on: arthritic (CIA) DBA/1J mice; experiment: Collagen induced arthritis in mouse; format: in vivo; settings: 50 mg/kg oral twice daily, 23 days
Experimental: The assay was designed as in reference, J. Exp. Med., 1985, 162, 637-646, the disclosure of which is incorporated herein by reference for the teaching of the assay.
Male DBA/1J mice (originally procured from Jackson Laboratories, USA), aged 8-10 weeks were immunized with an emulsion equivalent to 200 μg of type II collagen in Freund's Complete Adjuvant, injected intradermally at the base of the tail. A booster shot with the same emulsion was given 21 days later. A group of naïve mice was maintained alongside.
From day 23 to day 56, mice were examined daily once for the signs of rheumatoid arthritis, using the Articular Index and paw thickness as parameters. Articular Index scoring was performed employing the following criteria:
Mice with a minimum hind paw score of 2 were inducted into the study.
Mice were randomized into the various study groups and orally administered the vehicle (0.5% CMC, 1 ml/kg), test compound (compound of example 3, 50 mg/kg twice daily) and standard compound (Enbrel, 3 mg/kg, s.c., once daily). […] The dosing of the compounds was done for 23 days.
The following parameters were observed and recorded daily, • 1. Body weight • 2. Articular index • 3. Paw thickness in mm using a tension free caliper • 4. Any significant observation regarding the condition of the animal. […]
The results are graphically depicted in FIG. 3 (Articular index versus days of treatment) and FIG. 4 (Paw thickness versus days of treatment). Data obtained during the course of this study (articular index and paw thickness) was statistically evaluated by applying Mann-Whitney U test.
Mice were humanely euthanized and the hind paws were harvested from each animal, fixed in 10% neutral buffered formalin, decalcified in 5% formic acid and embedded in paraffin. Section […] were stained with either hematoxylin and eosin or safranin 0 and evaluated microscopically. Histopathological changes were scored as follows: mild (score=1), moderate (score=2) or severe (score=3) for the parameters of cellular infiltration, bone erosions and cartilage damage, graded separately. […]

- IC50 [1]: 100 nM
- IC50 [2]: 670 nM
SMILES: CN1CC[C@@H](c2c(O)cc(O)c3c(=O)cc(-c4ccc(C(F)(F)F)cc4Cl)oc23)[C@@H]1CO.Cl [Compound of example 3, (+)-trans-2-(2-Chloro-4-trifluoromethyl-phenyl)-5,7-dihydroxy-8-(2-hydroxymethyl-1-methyl-pyrrolidin-3-yl)-chromen-4-one hydrochloride]
- Severity of disease by articular index and paw thickness [3]: trend towards ameriolation of the disease
- Histopathological evaluation of hind paws ([3]; cellular infiltration, bone erosions, cartilage damage): potential anti-arthritic effect
